Among the data in PubChem BioAssay (NCI) are GI50 and TGI values, retold here.

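Where inhibition never reached the appropriate level, the endpoint shown equals the highest concentration tested. Otherwise, values were interpolated linearly from a five-concentration, 48-hour dose response in 96-well plates. The concentration for 50% growth inhibition is given as GI50. TGI is the concentration that stops growth completely.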 Where only a bound is given, the exact number is not on record here.

Experiment in all cases: growth of human tumour cells (NCI), 48 h
Test [1] concerns MDA-MB-231 breast.
Test [2] concerns SNB-75 CNS.
Test [3] deals with HT29 colon.
Test [4] relates to TK-10 renal.
Test [5] has as its system U251 CNS.
The subject of test [6] is PC-3 prostate.
Test [7] deals with HCC-2998 colon.
Test [8] concerns SF-268 CNS.
Test [9] has as its system SK-MEL-5 melanoma.
The subject of test [10] is HS 578T breast.

On to `CC1(C)N=C(N)N=C(N)N1c1ccc(CCCCc2ccccc2)c(Cl)c1`, for which the GI50 is 0.444 µM in test [1]; 0.124 µM in [2]; < 0.01 µM in test [3]; 0.0721 µM in test [4]; < 0.01 µM in test [5]; < 0.0172 µM in test [6]. For the same compound, the GI50 was 0.131 µM in test [7], 0.0536 µM in test [8], 0.0628 µM in test [9] and 4.49 µM in test [10]. For the same compound, the TGI in test [1] came to 5.85 µM; in test [2] it was 5.87 µM; in [3], 1.55 µM; in test [4] it was 17.5 µM; in test [5], 1.83 µM; in test [6], 6.88 µM. In addition, the TGI came out at 3.52 µM in test [7], 13.7 µM in [8], 1.32 µM in [9] and 39.4 µM in [10].
On to `C=C(C)[C@@H]1CC[C@]2(COCCC#N)CC[C@]3(C)[C@H](CC[C@@H]4[C@@](C)(CCCNCCC#N)[C@H](C(=C)C)CC[C@]43C)[C@@H]12`, for which the GI50 in test [1] is 7.83 µM; in test [2], > 50 µM; in [3], 7.88 µM; in test [4], 16 µM; in test [5], 13.9 µM; in [6] it was 10.3 µM. Besides, the GI50 in test [7] is 9.08 µM; in [8] it was 23.5 µM; in test [9] it was 20.2 µM; in test [10], 21.1 µM. Also, the TGI is 17.7 µM in [1]; > 50 µM in test [2]; 19.8 µM in [3]; > 50 µM in test [4]; 47.1 µM in test [5]; > 50 µM in test [6]. In addition, the TGI in [7] is 20.1 µM; in test [8], > 50 µM; in test [9] it was > 50 µM; in test [10], > 50 µM.
For the compound `CO/C=C/C(=O)c1cc2cnc3c(=N)cc(NC(=O)C(C)C)c([nH]1)c23`, the GI50 is 0.0883 µM in test [1]; 0.00763 µM in test [2]; 0.0801 µM in [3]; 0.0266 µM in test [4]; 0.0889 µM in test [5]; 0.0183 µM in test [6]. The GI50 in test [7] was 0.291 µM; in test [8] it was 0.0616 µM; in test [9], 0.075 µM; in [10], 0.0195 µM. Besides, the TGI turned out to be 0.66 µM in test [1]; 0.0982 µM in test [2]; 0.721 µM in test [3]; 0.258 µM in test [4]; 0.61 µM in [5]; 0.817 µM in test [6]. In addition, the TGI in test [7] was 1.63 µM; in [8], 0.918 µM; in test [9], 0.183 µM; in [10], 0.188 µM.
Take `Cc1ccc(NC(=O)c2ccc(CN3CCN(C)CC3)cc2)cc1Nc1nccc(-c2cccnc2)n1`: the GI50 in test [1] is 18.3 µM; in test [2] it was 18.7 µM; in test [3], 4.88 µM; in test [4] it was 28.1 µM; in test [5], 17.7 µM; in [6], 21.5 µM. Also, the GI50 in test [7] is 21.3 µM; in test [8] it was 25.6 µM; in test [9], 12.3 µM; in [10], 15 µM. For the same compound, the TGI turned out to be 46.2 µM in test [1]; 34.2 µM in test [2]; 24.1 µM in test [3]; 70.6 µM in [4]; 45.1 µM in test [5]; 71.6 µM in test [6]. The TGI in [7] was 38.5 µM; in test [8], 71 µM; in [9] it was 24.9 µM; in test [10], 43.1 µM.
With `Cc1cc(Nc2ccc(OCc3ccccc3)cc2)nc2cc(O)ccc12`, the GI50 in [1] is 2.52 µM; in test [2], 2.4 µM; in test [3] it was 3.86 µM; in test [4], 14.5 µM; in test [5], 4.54 µM; in test [6] it was 3.46 µM. Moreover, the GI50 in [7] is 2.41 µM; in [8] it was 11.9 µM; in [9] it was 1.68 µM; in [10] it was 10.2 µM. Further, the TGI in test [1] came to 8.78 µM; in [2], 11.2 µM; in [3], 14.9 µM; in [4] it was 29.2 µM; in test [5] it was 17.5 µM; in test [6], 18 µM. Also, the TGI amounted to 5.18 µM in [7], 26.4 µM in [8], 3.2 µM in test [9] and 29.2 µM in test [10].
Take `O=C1c2[nH]cc(CNC3CN4CCC3CC4)c2C(=O)c2c1c(O)c1ccccc1c2O` (stereo not given): the GI50 in test [1] is 1.41 µM; in test [2] it was 16.2 µM; in [3], 12.5 µM; in test [4], 0.266 µM; in test [5], 1.21 µM; in test [6], 1.21 µM. The GI50 in test [7] is 0.187 µM; in test [8] it was 12.6 µM; in test [9], 11.9 µM; in [10], 26.6 µM. The TGI was found to be 3.09 µM in test [1]; 44.6 µM in test [2]; 38.3 µM in test [3]; 1.19 µM in test [4]; 2.58 µM in test [5]; 3.41 µM in test [6]. In addition, the TGI came to 0.721 µM in test [7], 68.4 µM in [8], 31.5 µM in [9] and 77.5 µM in test [10].
